Source: patent US20200345008A1, “Increased grape yields with brassinosteroid application” (priority 2019, published 2020)

Columns and labels:
[1] = tested on: grapes (var. Scarlet Royal); assay: Experiment 2: HBR spray application on Scarlet Royal grapes; assay type: in vivo; conditions: for berry hue / cluster color / soluble solids: evaluations Days 54-97; for ripening responses: ethephon standard treatment (Day 45), versus untreated check
From the text: Homobrassinolide (HBR) was applied on grapes (var. Scarlet Royal) at late bloom (Day 0), or at late bloom (Day 0) and again at approximately 1 week after berry set (Day 7). Grapes were approximately 3 mm in diameter at Day 0 and 6 mm in diameter at Day 7. HBR was applied at rates of 0.5 ppm/aiA, 1.0 ppm/aiA, and 2.0 ppm/aiA. Spray applications were made using a backpack mistblower to simulate commercial airblast applications at 100 gpa. Controls were an untreated group, and a group that received the standard treatment with Ethephon approximately two weeks after color break (Day 45). Evaluations were made at Days 54, 66, 75, 82, 90, and 97. All treated groups also received Latron B1956 which was added to each tank mix as a surfactant (0.125% v/v). Soluble solids, cluster color, and berry hue were enhanced by HBR and the ethephon standard treatment. […] Results are illustrated in Table 3 (FIG. 4).

[2] = tested on: grapes of the variety Flame Seedless; assay type: in vivo
From the text: Treatment (HBR) was twice applied to grapes of the variety Flame Seedless. Treatments consisted of either HBR or ProGibb (ProGibb 4%, a plant growth regulator commonly used on table grapes for berry thinning and/or increasing berry size). At the first application (Day 0) the grapes were approximately 3 mm in diameter. The second application was seven days later (Day 7) when the grapes were approximately 6 mm in diameter. The HBR was applied with a backpack mist blower at a rate if 100 gallons per acre. Grapes were evaluated for Cluster Color Rating and Cluster Color Intensity (Hue) on about Day 65 by comparing test subjects with the control of condition 1. The same data set was analyzed for berry weight, berry firmness, Brix units, and phytotoxicity.

grapes = conditions: Lenahan et al., 2006; cited from earlier work
[3] = two applications, or single application of 1.0 or 2.0 ppm/aiA, versus single application of 0.5 ppm/aiA HBR
[4] = HBR on Day 0 at 2.5 ppm/aiA, versus control, evaluated about Day 65

Compound	berry hue ([1]; Scarlet Royal)	cluster color ([1]; Scarlet Royal)	soluble solids ([1]; Scarlet Royal)	crop injury ([1]; all treatments, Scarlet Royal)	ripening responses ([1]; double spray of 2 ppm ai HBR)	efficacy ranking of treatments ([1]; double spray of 2 ppm ai HBR, compared to the ethephon standard treatment)	crop injury ([1]; in vivo)	rate response ([1]; single spray timing treatments (0.5, 1.0, 2.0 ppm/aiA) versus untreated check)	hue [1, 3]	percentages of clusters of color [1, 3]	soluble solids and Brix degrees [1, 3]	degrees Brix of the grapes ([2]; HBR on Day 0)	color intensity per reddish cluster [2, 4]	percentage of clusters per plot that were noticeably reddish [2, 4]	color intensity within each identified reddish cluster ([2]; HBR treatment, versus control)	percentage of reddish grapes within each identified reddish cluster ([2]; HBR treatment, versus control)	phytotoxicity ([2]; in vivo)	firmness of grapes (grapes)
O=P(O)(O)CCCl [ethephon, Ethephon, reference compound]	enhanced	enhanced	enhanced	No crop injury was observed	significantly more effective than the untreated check													
CC[C@@H](C(C)C)C(O)C(O)[C@@H](C)[C@H]1CC[C@H]2[C@@H]3COC(=O)[C@H]4C[C@H](O)[C@H](O)C[C@]4(C)[C@H]3CC[C@]12C (stereo in doubt) [HBR, homobrassinolide]	enhanced	enhanced	enhanced		significantly more effective than the untreated check	most efficacious treatment	No crop injury was observed	positive rate response	greater hue	increased percentages of clusters of color	increased soluble solids and Brix degrees	tended to increase	more intense color per reddish cluster than control	increased the percentage of clusters per plot that were noticeably reddish	increased the color intensity	increased the percentage of reddish grapes	no observed phytotoxicity	
C=C1C[C@]23C[C@@]1(O)CC[C@H]2[C@@]12C=C[C@H](O)[C@@](C)(C(=O)O1)[C@H]2[C@@H]3C(=O)O [GA3, gibberellic acid]																		increase firmness
